Test results: BindingDB's records for patent WO2022091056 (NOVARTIS AG, 2022)

The compounds below were run against Interleukin-17 receptor A/ (Homo sapiens, UniProt Q16552) (assay: Human IL-17A x IL-17RA TR-FRET assay).
Method: The final total assay volume is 10 µL. […] The neutral control (NC) contains all the assay components, but DMSO instead of test compound. […] The fluorescence values for emission at 615 nm and 665 nm are loaded to the evaluation software Helios.

Sequence of Interleukin-17 receptor A/ (Q16552 whole entry): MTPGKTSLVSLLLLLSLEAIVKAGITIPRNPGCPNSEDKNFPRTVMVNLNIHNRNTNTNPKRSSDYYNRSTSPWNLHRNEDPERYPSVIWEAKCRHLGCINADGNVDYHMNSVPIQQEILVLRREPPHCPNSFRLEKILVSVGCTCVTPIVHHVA
Sequence of Interleukin-17 receptor A/ (Q96F46 whole entry, further chain): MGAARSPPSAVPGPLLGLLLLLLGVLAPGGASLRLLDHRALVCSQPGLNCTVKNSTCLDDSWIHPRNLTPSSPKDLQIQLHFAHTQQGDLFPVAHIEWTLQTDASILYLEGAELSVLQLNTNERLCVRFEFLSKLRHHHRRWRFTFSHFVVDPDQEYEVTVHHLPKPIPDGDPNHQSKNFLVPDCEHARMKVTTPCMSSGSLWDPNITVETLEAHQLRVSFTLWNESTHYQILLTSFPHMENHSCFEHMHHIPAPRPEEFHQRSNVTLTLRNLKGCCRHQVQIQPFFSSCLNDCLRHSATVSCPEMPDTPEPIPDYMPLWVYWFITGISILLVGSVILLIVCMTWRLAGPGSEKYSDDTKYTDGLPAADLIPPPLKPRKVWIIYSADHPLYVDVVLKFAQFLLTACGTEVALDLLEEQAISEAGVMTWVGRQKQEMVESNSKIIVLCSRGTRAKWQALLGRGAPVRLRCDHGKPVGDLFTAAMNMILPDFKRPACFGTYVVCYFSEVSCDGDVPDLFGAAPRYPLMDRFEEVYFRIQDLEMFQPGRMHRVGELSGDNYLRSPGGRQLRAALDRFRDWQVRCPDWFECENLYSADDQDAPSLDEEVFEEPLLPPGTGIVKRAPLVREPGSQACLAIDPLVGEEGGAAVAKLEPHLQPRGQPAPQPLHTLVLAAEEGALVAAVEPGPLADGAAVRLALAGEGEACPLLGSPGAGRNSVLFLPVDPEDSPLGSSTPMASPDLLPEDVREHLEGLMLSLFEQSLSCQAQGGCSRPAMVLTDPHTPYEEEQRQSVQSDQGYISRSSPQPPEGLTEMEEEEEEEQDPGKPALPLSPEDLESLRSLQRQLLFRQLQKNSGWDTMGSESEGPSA

Structure (SMILES)	IC50 [nM]
Cc1c(-c2ccc(NC(=O)[C@@H](NC(=O)c3ccnn3C)C3CCCCC3)cc2F)ccc[n+]1[O-] [WO2022091056, Example 83]	1980
Cc1c[n+]([O-])cc(C)c1-c1ccc(NC(=O)[C@@H](NC(=O)c2ccnn2C)C2CCCCC2)cc1 [WO2022091056, Example 97]	1730
Cc1nccc(Cl)c1-c1ccc(NC(=O)[C@@H](NC(=O)c2ccnn2C)C2CCCCC2)cc1F [WO2022091056, Example 137]	3790

Compounds with a lower IC50, results first:

IC50 [nM]	Structure (SMILES)
918	Cc1cc[n+]([O-])c(C)c1-c1ccc(NC(=O)[C@@H](NC(=O)c2conc2CN)C2CCCCC2)cc1 [WO2022091056, Example 79]
23	Cc1c(-c2ccc(NC(=O)[C@@H](NC(=O)c3ccnn3C)[C@H]3CCCC(F)(F)C3)cc2F)c(Cl)cc[n+]1[O-] [WO2022091056, Example 110]
